The subject of one data set is PEP model in mice. Kind of data set: Intra-ductal RC infusion PEP model in mice: histological severity, serum amylase. The format is in vivo, mouse. The source says:
The procedure for retrograde infusion into the CBD and pancreatic duct has been described before^14. Briefly, Swiss Webster mice were anesthetized with isoflurane. A midline incision was made to reveal the abdominal cavity. The duodenum was flipped to reveal its distal side and held in place by ligatures. […] needle was inserted through the anti-mesenteric aspect of the duodenum to cannulate the CBD. A small bull dog clamp was applied to the distal CBD (near the duodenum) to prevent back flow of the infusate into the duodenal lumen and to hold the cannula in place. A larger bull dog clamp was applied to the proximal CBD (near the liver) to prevent infusion into the liver and thus to direct flow to the pancreatic duct. Total volumes of 50-100 μl of iohexol, iopamidol, or normal saline (NS) were infused at 10-20 μl per min for 5 min using a P33 perfusion pump (Harvard Apparatus, Holliston, Mass.). Upon completion of the infusion, the bull dog clamps were released. The exterior abdominal wound was closed using 7 mm wound clips, and a single injection of buprenorphine (0.075 mg/kg) was given immediately after the surgery. Mice recovered on a heating pad for 30 min after the procedure. They were given free access to food and water after the surgery. The pancreas, duodenum, and spleen were fixed at room temperature for 24 hr in 4% paraformaldehyde. Paraffin-embedded sections were stained with hematoxylin an eosin (HE) and graded using a 20× objective over 10 separate fields in a blinded fashion. Pancreas tissue was graded for edema, inflammatory infiltrate, and necrosis as described by Wildi et al.^67. Whole blood samples were centrifuged at 1500×g for 5 min at 4° C. Serum amylase was measured using a Phadebas kit (Amersham Pharmacia, Rochester N.Y.) as previously described^68.

The subject of data set [1] is mouse pancreatic acinar cells. The experiment in a line: Ca2+ signals (Fluo-4AM) in mouse pancreatic acinar cells. The format is cell-based. As to conditions: 25% and 33% RC; peak-plateau Ca2+ waves. On the procedure:
(§1) Acinar cells were loaded at room temperature with the high-affinity Ca^2+-sensing dye Fluo-4AM (Kd=300 nM; Invitrogen). Acinar cells were plated on acid-washed glass coverslips and then mounted on a perifusion chamber. Thereupon, they were stimulated at room temperature with varying concentrations of RC (17-50%) diluted in HEPES buffer. Carbachol (1 mM) was given at the end of each experiment to confirm that the cells were intact and could mobilize intracellular Ca^2+ stores. A Zeiss LSM710 laser scanning confocal microscope was used with a […], 1.4 numerical aperture objective. The dye was excited at 488 nm wavelength, and emission signals of >515 nm were collected every 2 sec. Fluorescence from individual acinar cells was recorded. Analysis of recordings was performed using ImageJ software (NIH, Bethesda, Md.), and mean fluorescence over time in each region was graphed.
Groups of pancreatic acinar cells were isolated as previously described 26, 69 with minor modifications. Briefly, the pancreas was removed, and then minced for 5 min in buffer containing 20 mM HEPES (pH 7.4), 95 mM NaCl, 4.7 mM KCl, 0.6 mM MgCl2, 1.3 mM CaCl2=, 10 mM glucose, and 2 mM glutamine, plus 1% BSA, 1×MEM nonessential amino acids (GIBCO/BRL), 200 units/ml type-4 collagenase (Worthington, Freehold, N.J.), and 1 mg/ml soybean trypsin inhibitor. The tissue was incubated for 30 min at 37° C. with shaking at 90 rpm. […]

The test system of the next data set is NF-κB. The experiment in a line: NF-κB-luciferase activity assay in AR42J cells. To be noted: for effect on RC-induced NF-κB luciferase levels: U73122 5 μM, 2-APB 100 μM, BAPTA 64 μM. The format is cell-based. On the procedure:
AR42J cells were differentiated towards an acinar phenotype by administering dexamethasone (100 nM) for 48-72 hr^17. AR42J cells were infected with Ad-NF-κB luciferase 16 h prior to stimulation using a previously described method^12. Following a wash with DMEM/F12 medium, acinar cells were evenly distributed in a 48-well plate and incubated for 30 min at 37° C. They were incubated with RC at varying concentrations and times. NF-κB-luciferase was measured using a commercially available luciferase assay (Promega, Madison, Wis.). Briefly, cells were spun at 1,000 rpm for 5 min, washed with PBS, and lysed using reporter lysis 5× buffer (Promega, catalog no. E397A). Samples were vortexed and spun at 12,000×g for 2 min. The supernatant was plated, and luminescence was measured using a Synergy H1 plate reader (BioTek, Winooski, Vt.) and normalized to […].

The subject of the next data set is primary acinar cells. The experiment in a line: Cell necrosis assay (propidium iodide uptake) in primary acinar cells. The format is cell-based, mouse. To be noted: for effect on RC (12%)-induced acinar cell injury (PI uptake): 6 hr incubation, U73122 5 μM, 2-APB 100 μM, BAPTA 64 μM, IKK-2 20 μM, FK506 24 μM, CsA 16 μM. As to the method:
Acinar cells were incubated in a 48-well plate with 50 μg/ml of propidium iodide (PI) for 30 min prior to addition of RC. Fluorescence was measured at 536 nm excitation and 617 nm emission wavelengths over time a time course of up to 6 hr. Fluorescence was measured after cell lysis with 0.5% Triton-X 100 was used to normalize the results relative to total DNA.

A further data set deals with pancreatic acinar cells. Kind of data set: ATP level measurements in acinar cells. The format is cell-based, mouse. To be noted: RC, concentration dependent. On the procedure: Following isolation, pancreatic acinar cells were cultured in DMEM/F12 Medium (0.5 ml/well of a 48-well plate) at 37° C. water bath and treated with RC±FK506. Cells were collected at indicated time points and lysed in 100 lysis buffer (100 mM Tris pH 7.75, 4 mM EDTA). ATP levels were measured from 20 μl aliquots of acinar cell lysates using the ENLITEN luciferase/luciferin reagent (Promega catalog no. FF2021).

The subject of another data set is pancreatic NF-κB. The experiment in a line: Imaging pancreatic NF-κB bioluminescence in vivo. The arrangement: species or system mouse. As to conditions: 4 hr after surgery, region of the pancreas. On the procedure: An AAV6-NF-κB-luciferase reporter was constructed, expanded in HEK293 cells, and purified as previously described^18-20, 39. A volume of 100 μl of virus (10^12 GCP/ml) was infused into the pancreaticobiliary duct at a rate of 10 μl/min using the same technique of RC infusion described above and recently published^21, 39. After a 5-week recovery from the surgery, mice underwent PEP induction with or without FK506 treatment. At varying time points after the surgery, ranging from 2 to 36 hr, bioluminescence signals were obtained by first giving a subcutaneous injection of luciferin (150 μg/g body weight) in the scruff of the neck 15 min before the start of imaging. The mice were briefly anesthetized with isoflurane and placed in the supine position in a bioluminescent imaging chamber (IVIS spectrum imager; Perkin Elmer, Waltham, Mass.) for 3-10 min. Average pixel intensity was measured from a pancreatic region of interest (in the upper abdomen). Raw time points from each mouse were normalized to its individual baseline intensity at time zero.

For data set [2] the following is noted: high-affinity Ca2+-sensing dye; cited from earlier work.
The test system of data set [3] is calcineurin. Kind of data set: NFAT-luciferase activity assay in mouse primary acinar cells. The format is cell-based. As to the method:
(§2) Acinar cells were infected with Ad-NFAT-luciferase following a previously described procedure^10, 15, 16. The construct includes a luciferase gene placed downstream of an IL-4 promoter which contains nine tandem NFAT binding sites^10. Acinar cells were incubated with the NFAT-driven luciferase adenovirus for 1.5 hr prior to stimulation. All of the stated inhibitors were added for 30 min prior to stimulation with RC. NFAT-luciferase was measured using the luciferase assay system. Briefly, cells were spun at 1,000 rpm for 5 min, washed with PBS, and lysed using reporter lysis 5× buffer (Promega #E397A, Madison, Wis.). Samples were vortexed and spun at 12,000 g for 2 min. Supernatant was plated, and luminescence was measured using a Synergy H1 plate reader (BioTek, Winooski, Vt.) and normalized to total protein.

Data set [4] has as its system calcineurin. The experiment in a line: NFAT-luciferase activity assay in human acinar cells. The format is cell-based. On the procedure:
as §2

In data set [5] the test system is calcineurin. Kind of data set: NFAT-luciferase activity assay in AR42J cells. To be noted: for effect on RC (6%)-induced NFAT-luciferase activity: pretreatment, FK506 24 μM, CsA 16 μM, U73122 5 μM, 2-APB 100 μM, BAPTA 64 μM. The format is cell-based. On the procedure:
as §2

Another data set has as its system AR42J cells. Kind of data set: Ca2+ signals (Fluo-4AM) in AR42J cells. The format is cell-based. As to conditions: U73122 5 μM, 2-APB 100 μM. On the procedure:
FIG. 7A-7H. […] (A) Summation of whole cell tracings from AR42J cells loaded with Fluo-4AM and perifused with RC (iohexol; 10-25%). (B, D) Quantification of amplitude and area under the curve. (C) RC (25%)-induced acinar cell Ca^2+ signals were prevented by the PLC inhibitor U73122 (5 μM) and the IP3R inhibitor 2-APB (100 μM). (n=20-30 cells per condition). *, # P<0.05 relative to 10% RC or RC alone, respectively. AR42J cells were infected with Ad-NFAT-luciferase and stimulated with RC at (E) increasing concentrations. […] (n=3). *, #, P<0.05, relative to the control or RC alone, respectively.
as §1, with “The dye was excited at 488 nm wavelength, and emission signals of >515 nm were collected every 2 sec.” left out

The mark [6] stands for this setting: varying concentrations of iopamidol.

We go through nine molecules from patent publication US20190314345A1, “CALCINEURIN INHIBITOR AND NON-STEROIDAL ANTI-INFLAMMATORY DRUG TO REDUCE RISK OF POST-IMAGING PANCREATITIS” (UNIVERSITY OF PITTSBURGH - OF THE COMMONWEALTH SYSTEM OF …, priority 2016, published 2019).

By Kd is commonly meant the equilibrium constant for the complex coming apart.

As for `CC(=O)N(CC(O)CO)c1c(I)c(C(=O)NCC(O)CO)c(I)c(C(=O)NCC(O)CO)c1I` (stereo not drawn) [RC, iohexol], the “severity of pancreatitis at pH 6 compared to pH 7” value in the data set with PEP model in mice (RC buffered with 10 mM HEPES, pH clamped at 6) is listed as “no increased severity”. In addition, in the data set with PEP model in mice (intra-ductal RC, doubled rate and volume, 24 hr after procedure), the “increase in histological severity above the intra-ductal NS sham control” value worked out at 59%. The serum amylase increase entry with PEP model in mice (intra-ductal RC, 6 hr post-procedure) is on record as “at least 50%”. Besides, the “Ca2+ signal amplitude above baseline” value in [1] turned out to be 400%. Also, the “increase in NF-κB luciferase above baseline” value was 5 fold in the data set with NF-κB (25% RC for 10 min, followed by washout); 58 fold in the data set with NF-κB (25% RC for 60 min, P<0.05); 59 fold in the data set on NF-κB (25% RC for 90 min, P<0.05); 112 fold in the data set on NF-κB (25% RC for 120 min, P<0.05). Further, in the data set with NF-κB (at 350 mOsm/L), the “rise in NF-κB” value is on record as 300 fold. Further, the PI uptake entry with primary acinar cells (RC exposure for 6 hr) is “concentration-dependent increase”. In the data set on pancreatic acinar cells, the ATP levels entry was “depletion”. Moreover, the “peak in NF-κB luciferase compared to NS sham” value with pancreatic NF-κB was 13 fold.
Consider `CC(=O)OCOC(=O)CN(CC(=O)OCOC(C)=O)c1ccc(C)cc1OCCOc1cc(-c2c3cc(F)c(=O)cc-3oc3cc(OCOC(C)=O)c(F)cc23)ccc1N(CC(=O)OCOC(C)=O)CC(=O)OCOC(C)=O` [Fluo-4AM], for which, in data set [2], the Kd was 0.3 µM.
Consider `CC(=O)OCOC(=O)CN(CC(=O)OCOC(C)=O)c1ccccc1OCCOc1ccccc1N(CC(=O)OCOC(C)=O)CC(=O)OCOC(C)=O` [BAPTA-AM], for which the “effect on RC-induced rise in NFAT-luciferase” value with calcineurin [3] (30 min pre-treatment, FK506 24 μM, CsA 16 μM, BAPTA-AM 64 μM) is listed as “completely reduced”. Besides, the “effect on RC (25%)-induced NFAT-luciferase activity” value in the data set with calcineurin [4] is “prevented”. Moreover, the “effect on RC (6%)-induced NFAT-luciferase activity” value with calcineurin [5] is “prevented”. Further, the “effect on RC-induced NF-κB luciferase levels” value in the data set with NF-κB is listed as “reduced”. Besides, the “effect on RC (12%)-induced acinar cell injury (PI uptake)” value with primary acinar cells is “prevented”.
Turning to `OC[C@@H](O)[C@@H](O)[C@H](O)[C@H](O)CO` [mannitol], the “NF-κB increase at equimolar concentrations” value in the data set with NF-κB (osmolality control, equimolar to RC) is given as “failed to cause an increase”.
For `COc1ccc2c(c1)CC[C@@H]1[C@@H]2CC[C@]2(C)[C@@H](NCCCCCCN3C(=O)C=CC3=O)CC[C@@H]12` [U73122], the “effect on RC (25%)-induced acinar cell Ca2+ signals” value in the data set on AR42J cells is listed as “prevented”. In the data set with calcineurin [5], the “effect on RC (6%)-induced NFAT-luciferase activity” value was “prevented”. Besides, in the data set on NF-κB, the “effect on RC-induced NF-κB luciferase levels” value is on record as “reduced”. For the same molecule, the “effect on RC (12%)-induced acinar cell injury (PI uptake)” value in the data set with primary acinar cells is given as “prevented”.
With `COc1ccc2c(c1)c(CC(=O)O)c(C)n2C(=O)c1ccc(Cl)cc1` [indomethacin], the “effect of FK506 compared with therapeutic indomethacin on RC-induced pancreatitis” value in the data set on PEP model in mice (FK506 1 mg/kg, indomethacin 7 mg/kg IP after RC infusion) is on record as “as robust”.
As for `C[C@H](O)C(=O)Nc1c(I)c(C(=O)NC(CO)CO)c(I)c(C(=O)NC(CO)CO)c1I` [iopamidol], in the data set with PEP model in mice (intra-ductal infusion, 24 hr), the induction of pancreatitis entry is given as “induces pancreatitis”. In addition, the NFAT activation entry with calcineurin [5] (setting [6]) is reported as “concentration-dependent”. In the data set with NF-κB (setting [6]), the NF-κB activation entry was “concentration-dependent”.
Take `NCCOB(c1ccccc1)c1ccccc1` [2-APB]: the “effect on RC (25%)-induced acinar cell Ca2+ signals” value in the data set on AR42J cells is on record as “prevented”. For the same molecule, the “reduction of RC-induced luciferase rise” value in the data set on calcineurin [3] (2-APB 100 μM, P<0.05) was determined as 47%. Besides, the “effect on RC (6%)-induced NFAT-luciferase activity” value in the data set with calcineurin [5] is listed as “prevented”. For the same molecule, in the data set on NF-κB, the “effect on RC-induced NF-κB luciferase levels” value is listed as “reduced”. Besides, the “effect on RC (12%)-induced acinar cell injury (PI uptake)” value with primary acinar cells is recorded as “prevented”.
Turning to `CCCCCCCCCCC[C@@H](C[C@@H]1OC(=O)[C@H]1CCCCCC)OC(=O)[C@H](CC(C)C)NC=O` [Orlistat], in the data set with NF-κB (NAC 2-12 mM, Orlistat 50-100 μM, RC 16%), the “effect of pretreatment on RC-induced NF-κB activation” value is given as “did not significantly reduce”.
